Data from US7943653B2 (priority 2008, dated 2011).
Where two headings read alike, the source gives them in different places.

Key:
human CB1 receptor = target: T1, human CB1 receptor (Homo sapiens, UniProt P21554); assay: Binding assay, cannabinoid CB1 receptor, [3H]-CP-55,940 displacement
T1 construct: expressed in transfected cells; host or cells: SK-N-MC cells, stably transfected with pcDNA3 CB-1 (human); semi-purified membrane pellet
Method: (§1) The human CB1 and CB2 receptors were stably expressed in SK-N-MC cells transfected with pcDNA3 CB-1 (human) or pcDNA3 CB-2 (human). The cells were grown in T-180 cell culture flasks under standard cell culture conditions at 37° C. in a 5% CO2 atmosphere. The cells were harvested by trysinization and homogenized in a homogenization buffer (10 mM Tris, 0.2 mM MgCl2, 5 mM KCl, with protease inhibitors aprotinin, leupeptin, pepstatin A and bacitracin) and centrifuged (2000 g). The supernatant was then centrifuged in 2M sucrose (31,300 g) to produce a semi-purified membrane pellet. The pellet was resuspended in homogenization and stored at −80° C.
(§2) On the day of the assay, the pellet was thawed on ice and diluted in assay buffer (50 mM Tris-HCl, 5 mM MgCl2, 2.5 mM EDTA, 0.5 mg/mL fatty acid free bovine serum albumin, pH 7.5). The diluted membrane pellet was added with buffer, either a test compound or vehicle standard and the radioligand [H]^3+-CP-55,940 (0.2 nM) to the wells of a 96-well polypropylene plate. Non-specific binding was measured in wells containing WIN 55,212 (10 uM). The plate was covered and incubated for 90 minutes at 30° C. The contents were then aspirated onto a Packard Unifilter GF/C filter bottom plate prewet with 0.5% polyethyleneimine. The wells of the polypropylene plate were rinsed and aspirated seven times with a 0.9% saline-0.5% Tween 20 solution. The Unifilter plate was dried, scintillation cocktail was added to each well and the counts representing binding were quantitated in a TopCount scintillation counter.
(§3) For compounds tested, an IC50 binding value was obtained from percent inhibition studies in which various test concentrations were used. The binding value was calculated by linear regression.
(§4) For compounds without an IC50 binding value, the percent inhibition (%) was obtained at a test concentration of ^a1.0 μM or ^b0.2 μM.

human CB2 receptor = target: T2, human CB2 receptor (Homo sapiens, UniProt P34972); assay: Binding assay, cannabinoid CB2 receptor, [3H]-CP-55,940 displacement; details: for inhibition at 0.2 µM / inhibition at 1 µM: read-out: Cannabinoid CB2 Receptor Binding, percent inhibition; for IC50: membranes of SK-N-MC cells expressing human CB2, calculated by linear regression from percent inhibition at various concentrations
T2 construct: expressed in transfected cells; host or cells: SK-N-MC cells, stably transfected with pcDNA3 CB-2 (human); semi-purified membrane pellet
Method: as §1, §2, §3, §4

[1] = membranes of SK-N-MC cells expressing human CB1, calculated by linear regression from percent inhibition at various concentrations, read-out: Cannabinoid CB1 Receptor Binding, IC50 binding value
[2] = read-out: Cannabinoid CB1 Receptor Binding, percent inhibition

T2 sequence (P34972 whole entry): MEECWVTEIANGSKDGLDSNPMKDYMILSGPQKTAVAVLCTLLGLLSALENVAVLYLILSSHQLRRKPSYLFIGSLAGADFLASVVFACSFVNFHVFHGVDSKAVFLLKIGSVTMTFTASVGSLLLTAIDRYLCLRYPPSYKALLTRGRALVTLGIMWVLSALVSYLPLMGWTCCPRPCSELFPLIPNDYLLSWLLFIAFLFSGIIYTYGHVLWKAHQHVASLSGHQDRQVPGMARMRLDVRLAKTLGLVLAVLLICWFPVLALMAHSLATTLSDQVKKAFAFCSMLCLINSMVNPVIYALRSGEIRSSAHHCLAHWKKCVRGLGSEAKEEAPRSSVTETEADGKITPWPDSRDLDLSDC
T1 sequence (P21554 whole entry): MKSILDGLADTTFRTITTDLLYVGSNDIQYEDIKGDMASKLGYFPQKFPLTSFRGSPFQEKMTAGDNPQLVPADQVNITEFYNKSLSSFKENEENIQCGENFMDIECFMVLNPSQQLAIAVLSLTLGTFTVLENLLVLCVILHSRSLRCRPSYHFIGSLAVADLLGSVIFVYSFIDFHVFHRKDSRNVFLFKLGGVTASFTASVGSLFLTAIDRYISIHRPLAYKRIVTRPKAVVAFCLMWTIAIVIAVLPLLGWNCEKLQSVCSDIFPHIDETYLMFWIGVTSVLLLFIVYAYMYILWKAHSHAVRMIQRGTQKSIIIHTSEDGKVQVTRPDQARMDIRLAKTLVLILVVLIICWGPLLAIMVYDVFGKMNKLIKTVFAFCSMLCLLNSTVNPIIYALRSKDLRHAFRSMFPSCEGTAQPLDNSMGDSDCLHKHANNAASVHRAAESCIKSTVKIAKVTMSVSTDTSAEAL

| SMILES | IC50 (human CB1 receptor; [1]) [nM] | IC50 (human CB1 receptor) [nM] | inhibition at 1 µM (human CB2 receptor) [%] | also measured |
| --- | --- | --- | --- | --- |
| CC(=Cc1cccc(Cl)c1)c1c(C)c(C(=O)N[C@@H](C)c2ccccc2)nn1-c1ccc(Cl)cc1Cl [Cpd 17, 5-[2-(3-chloro-phenyl)-1-methyl-vinyl]-1-(2,4-dichloro-phenyl)-4-methyl-1H-pyrazole-3-carboxylic acid [(1S)-1-phenyl-ethyl]-amide] | 250 |  |  |  |
| CNC(=O)c1nn(-c2ccc(Cl)cc2Cl)c(C(C)=Cc2ccc(Cl)cc2)c1C [Cpd 27, 5-[2-(4-chloro-phenyl)-1-methyl-vinyl]-1-(2,4-dichloro-phenyl)-4-methyl-1H-pyrazole-3-carboxylic acid methylamide] |  |  |  | inhibition at 0.2 µM (human CB1 receptor; [2]): 11%; inhibition at 0.2 µM (human CB2 receptor): 18% |
| CC(=Cc1ccc(Cl)cc1)c1c(C)c(C(=O)NN2CCCCC2)nn1-c1ccc(Cl)cc1Cl [Cpd 4, 5-[2-(4-chloro-phenyl)-1-methyl-vinyl]-1-(2,4-dichloro-phenyl)-4-methyl-1H-pyrazole-3-carboxylic acid piperidin-1-ylamide] |  | 90 |  | IC50 (human CB2 receptor): 1700 nM |
| CC(=Cc1ccc(Cl)cc1)c1c(C)c(C(=O)NC2CCCCC2)nn1-c1ccc(Cl)cc1Cl [Cpd 6, 5-[2-(4-chloro-phenyl)-1-methyl-vinyl]-1-(2,4-dichloro-phenyl)-4-methyl-1H-pyrazole-3-carboxylic acid cyclohexylamide] | 130 |  | 40 |  |
| CC(=Cc1ccc(Cl)cc1)c1c(C)c(C(=O)NN2CCOCC2)nn1-c1ccc(Cl)cc1Cl [Cpd 5, 5-[2-(4-chloro-phenyl)-1-methyl-vinyl]-1-(2,4-dichloro-phenyl)-4-methyl-1H-pyrazole-3-carboxylic acid morpholin-4-ylamide] | 360 |  |  | IC50 (human CB2 receptor): 2000 nM |
| CC(=Cc1cccc(Cl)c1)c1c(C)c(C(=O)N[C@H](C)C2CCCCC2)nn1-c1ccc(Cl)cc1Cl [Cpd 18, 5-[2-(3-chloro-phenyl)-1-methyl-vinyl]-1-(2,4-dichloro-phenyl)-4-methyl-1H-pyrazole-3-carboxylic acid [(1R)-1-cyclohexyl-ethyl]-amide] |  | 90 |  |  |
| CC(=Cc1ccc(Cl)cc1)c1c(C)c(C(=O)Nc2ccccc2)nn1-c1ccc(Cl)cc1Cl [Cpd 10, 5-[2-(4-chloro-phenyl)-1-methyl-vinyl]-1-(2,4-dichloro-phenyl)-4-methyl-1H-pyrazole-3-carboxylic acid phenylamide] | 600 |  | 46 |  |
| CC(=Cc1ccc(Cl)cc1)c1c(C)c(C(=O)N[C@H](C)c2ccccc2)nn1-c1ccc(Cl)cc1Cl [Cpd 11, 5-[2-(4-chloro-phenyl)-1-methyl-vinyl]-1-(2,4-dichloro-phenyl)-4-methyl-1H-pyrazole-3-carboxylic acid [(1R)-1-phenyl-ethyl]-amide] |  | 340 | 51 |  |
| CC(=Cc1ccc(Cl)cc1)c1c(C)c(C(=O)NCC2CCCCC2)nn1-c1ccc(Cl)cc1Cl [Cpd 9, 5-[2-(4-chloro-phenyl)-1-methyl-vinyl]-1-(2,4-dichloro-phenyl)-4-methyl-1H-pyrazole-3-carboxylic acid cyclohexylmethyl-amide] | 370 |  | 49 |  |
| CC(=Cc1ccc(Cl)cc1)c1c(C)c(C(=O)N[C@@H](C)C2CCCCC2)nn1-c1ccc(F)cc1F [Cpd 21, 5-[2-(4-chloro-phenyl)-1-methyl-vinyl]-1-(2,4-difluoro-phenyl)-4-methyl-1H-pyrazole-3-carboxylic acid [(1S)-1-cyclohexyl-ethyl]-amide] | 130 |  |  |  |
| CC(=Cc1cccc(Cl)c1)c1c(C)c(C(=O)NN2CCCCC2)nn1-c1ccc(Cl)cc1Cl [Cpd 12, 5-[2-(3-chloro-phenyl)-1-methyl-vinyl]-1-(2,4-dichloro-phenyl)-4-methyl-1H-pyrazole-3-carboxylic acid piperidin-1-ylamide] | 250 |  |  |  |
| CC(=Cc1ccc(Cl)cc1)c1c(C)c(C(=O)N[C@@H]2C(C)(C)[C@@H]3CC[C@]2(C)C3)nn1-c1ccc(Cl)cc1Cl [Cpd 3, 5-[2-(4-chloro-phenyl)-1-methyl-vinyl]-1-(2,4-dichloro-phenyl)-4-methyl-1H-pyrazole-3-carboxylic acid [(1R,2S,4R)-1,3,3-trimethyl-bicyclo[2.2.1]hept-2-yl]-amide] |  | 50 | 31 |  |
| CC(=Cc1ccc(Cl)cc1)c1c(C)c(C(=O)N[C@@H](C)C2CCCCC2)nn1-c1ccc(Cl)cc1Cl [Cpd 1, 5-[2-(4-chloro-phenyl)-1-methyl-vinyl]-1-(2,4-dichloro-phenyl)-4-methyl-1H-pyrazole-3-carboxylic acid [(1S)-1-cyclohexyl-ethyl]-amide] |  | 20 | 42 |  |
| CC(=Cc1ccc(Cl)cc1)c1c(C)c(C(=O)N[C@H](C)c2ccccc2)nn1-c1ccc(F)cc1F [Cpd 23, 5-[2-(4-chloro-phenyl)-1-methyl-vinyl]-1-(2,4-difluoro-phenyl)-4-methyl-1H-pyrazole-3-carboxylic acid [(1R)-1-phenyl-ethyl]-amide] | 300 |  |  |  |
| CC[C@H](C)NC(=O)c1nn(-c2ccc(Cl)cc2Cl)c(C(C)=Cc2ccc(Cl)cc2)c1C [Cpd 29, 5-[2-(4-chloro-phenyl)-1-methyl-vinyl]-1-(2,4-dichloro-phenyl)-4-methyl-1H-pyrazole-3-carboxylic acid [(S)-sec-butyl]-amide] |  |  |  | inhibition at 0.2 µM (human CB1 receptor; [2]): 52%; inhibition at 0.2 µM (human CB2 receptor): 9% |
| CC(=Cc1cccc(Cl)c1)c1c(C)c(C(=O)N[C@@H](C)C2CCCCC2)nn1-c1ccc(Cl)cc1Cl [Cpd 16, 5-[2-(3-chloro-phenyl)-1-methyl-vinyl]-1-(2,4-dichloro-phenyl)-4-methyl-1H-pyrazole-3-carboxylic acid [(1S)-1-cyclohexyl-ethyl]-amide] |  | 330 |  |  |
| CC(=Cc1ccc(Cl)cc1)c1c(C)c(C(=O)N[C@@H](C)c2ccccc2)nn1-c1ccc(Cl)cc1Cl [Cpd 2, 5-[2-(4-chloro-phenyl)-1-methyl-vinyl]-1-(2,4-dichloro-phenyl)-4-methyl-1H-pyrazole-3-carboxylic acid [(1S)-1-phenyl-ethyl]-amide] |  | 20 | 32 |  |
| CC(=Cc1ccc(Cl)cc1)c1c(C)c(C(=O)N[C@H](C)C2CCCCC2)nn1-c1ccc(F)cc1F [Cpd 24, 5-[2-(4-chloro-phenyl)-1-methyl-vinyl]-1-(2,4-difluoro-phenyl)-4-methyl-1H-pyrazole-3-carboxylic acid [(1R)-1-cyclohexyl-ethyl]-amide] | 280 |  |  |  |
| CC[C@@H](C)NC(=O)c1nn(-c2ccc(Cl)cc2Cl)c(C(C)=Cc2ccc(Cl)cc2)c1C [Cpd 28, 5-[2-(4-chloro-phenyl)-1-methyl-vinyl]-1-(2,4-dichloro-phenyl)-4-methyl-1H-pyrazole-3-carboxylic acid [(R)-sec-butyl]-amide] |  | 70 |  | inhibition at 0.2 µM (human CB2 receptor): 21% |
| CC(=Cc1ccc(Cl)cc1)c1c(C)c(C(=O)NC2CCCCC2C)nn1-c1ccc(Cl)cc1Cl (stereo not shown) [Cpd 7, 5-[2-(4-chloro-phenyl)-1-methyl-vinyl]-1-(2,4-dichloro-phenyl)-4-methyl-1H-pyrazole-3-carboxylic acid (2-methyl-cyclohexyl)-amide] | 110 |  | 55 |  |
| CC(=Cc1cccc(Cl)c1)c1c(C)c(C(=O)N[C@H](C)c2ccccc2)nn1-c1ccc(Cl)cc1Cl [Cpd 19, 5-[2-(3-chloro-phenyl)-1-methyl-vinyl]-1-(2,4-dichloro-phenyl)-4-methyl-1H-pyrazole-3-carboxylic acid [(1R)-1-phenyl-ethyl]-amide] | 370 |  |  |  |
| CC(=Cc1cccc(Cl)c1)c1c(C)c(C(=O)NN2CCOCC2)nn1-c1ccc(Cl)cc1Cl [Cpd 13, 5-[2-(3-chloro-phenyl)-1-methyl-vinyl]-1-(2,4-dichloro-phenyl)-4-methyl-1H-pyrazole-3-carboxylic acid morpholin-4-ylamide] |  |  |  | inhibition at 1 µM (human CB1 receptor; [2]): 53% |
| CC(=Cc1ccc(Cl)cc1)c1c(C)c(C(=O)N[C@H](C)C2CCCCC2)nn1-c1ccc(Cl)cc1Cl [Cpd 8, 5-[2-(4-chloro-phenyl)-1-methyl-vinyl]-1-(2,4-dichloro-phenyl)-4-methyl-1H-pyrazole-3-carboxylic acid [(1R)-1-cyclohexyl-ethyl]-amide] |  | 310 | 39 |  |
